Target: T1, full length active recombinant SYK enzyme (Homo sapiens, UniProt P43405)
T1 construct: full length active recombinant SYK enzyme (Millipore, Calif.); purchased Millipore
Assay: Inhibition of Syk tyrosine phosphorylation activity (LANCE TR-FRET kinase assay)
Format: biochemical
Details: activity in the Syk assays, class symbols
How it was run: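 1 nM full-length active recombinant SYK phosphorylated 550 nM biotin-DEEDYESP-OH with 100 μM ATP in 50 mM Tris pH 7.5, 5 mM MgCl2, 1 mM DTT and 3% DMSO for 1 h at room temperature. After EDTA quench, Eu-anti-phosphotyrosine/SA-APC TR-FRET was read after 1 h. IC50s came from non-linear regression.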

Row | Compound | IC50
1 | NC(=O)c1ncc(N[C@@H]2CCCC[C@@H]2N)nc1Nc1ccc(-n2cccn2)cc1 [Example 276, 3-(4-(1H-pyrazol-1-yl)phenylamino)-5-((1R,2S)-2-aminocyclohexylamino)pyrazine-2-carboxamide] | 1 to 10 nM
2 | CN(C)C(=O)c1ccc(Nc2nc(N[C@@H]3CCCC[C@@H]3N)cnc2C(N)=O)cc1 [Example 277, 5-((1R,2S)-2-aminocyclohexylamino)-3-(4-(dimethylcarbamoyl)phenylamino)pyrazine-2-carboxamide] | 10 to 100 nM
3 | CN(C)C(=O)c1ccc(Nc2nc(N[C@@H]3CCCC[C@@H]3N)cnc2C(N)=O)cn1 [Example 278, 5-((1R,2S)-2-aminocyclohexylamino)-3-(6-(dimethylcarbamoyl)pyridin-3-ylamino)pyrazine-2-carboxamide] | 100 to 1000 nM
4 | CN(C)C(=O)c1ccc(Nc2nc(N[C@@H]3CCCC[C@@H]3N)cnc2C(N)=O)cc1Cl [Example 279, 5-((1R,2S)-2-aminocyclohexylamino)-3-(3-chloro-4-(dimethylcarbamoyl)phenylamino)pyrazine-2-carboxamide] | 10 to 100 nM
5 | NC(=O)c1ncc(N[C@@H]2CCCC[C@@H]2N)nc1Nc1ccc(C(=O)N2CCC2)nc1 [Example 280, 5-((1R,2S)-2-aminocyclohexylamino)-3-(6-(azetidine-1-carbonyl)pyridin-3-ylamino)pyrazine-2-carboxamide] | 10 to 100 nM
6 | CC(C)C[C@@H](Nc1cnc(C(N)=O)c(Nc2ccc(C(=O)N(C)C)cc2)n1)C(N)=O [Example 281, (R)-5-(1-amino-4-methyl-1-oxopentan-2-ylamino)-3-(4-(dimethylcarbamoyl)phenylamino)pyrazine-2-carboxamide] | 10 to 100 nM
7 | CC(C)C[C@@H](Nc1cnc(C(N)=O)c(Nc2ccc(C(=O)N3CCC3)nc2)n1)C(N)=O [Example 282, (R)-5-(1-amino-4-methyl-1-oxopentan-2-ylamino)-3-(6-(azetidine-1-carbonyl)pyridin-3-ylamino)pyrazine-2-carboxamide] | 1 to 10 nM
8 | CN(C)C(=O)c1cccc(Nc2nc(N[C@@H]3CCCC[C@@H]3N)cnc2C(N)=O)c1 [Example 283, 5-((1R,2S)-2-aminocyclohexylamino)-3-(3-(dimethylcarbamoyl)phenylamino)pyrazine-2-carboxamide] | 10 to 100 nM
9 | CN(C)C(=O)c1cc(Nc2nc(N[C@@H]3CCCC[C@@H]3N)cnc2C(N)=O)ccc1F [Example 284, 5-((1R,2S)-2-aminocyclohexylamino)-3-(3-(dimethylcarbamoyl)-4-fluorophenylamino)pyrazine-2-carboxamide] | 100 to 1000 nM
10 | NC(=O)c1ncc(N[C@@H]2CCCC[C@@H]2N)nc1Nc1ccc(N2CCCC2)c(C(=O)N2CCCC2)c1 [Example 285, 5-((1R,2S)-2-aminocyclohexylamino)-3-(4-(pyrrolidin-1-yl)-3-(pyrrolidine-1-carbonyl)phenylamino)pyrazine-2-carboxamide] | 100 to 1000 nM
11 | COc1ccc(Nc2nc(N[C@@H]3CCCC[C@@H]3N)cnc2C(N)=O)cc1C(=O)N(C)C [Example 286, 5-((1R,2S)-2-aminocyclohexylamino)-3-(3-(dimethylcarbamoyl)-4-methoxyphenylamino)pyrazine-2-carboxamide] | 100 to 1000 nM
12 | NC(=O)c1ncc(N[C@@H]2CCCC[C@@H]2N)nc1Nc1cccc(C(=O)N2CCCC2)c1 [Example 287, 5-((1R,2S)-2-aminocyclohexylamino)-3-(3-(pyrrolidine-1-carbonyl)phenylamino)pyrazine-2-carboxamide] | 10 to 100 nM
13 | CN(C)C(=O)c1ccc(F)c(Nc2nc(N[C@@H]3CCCC[C@@H]3N)cnc2C(N)=O)c1 [Example 288, 5-((1R,2S)-2-aminocyclohexylamino)-3-(5-(dimethylcarbamoyl)-2-fluorophenylamino)pyrazine-2-carboxamide] | 100 to 1000 nM
14 | NC(=O)c1ncc(N[C@@H]2CCCC[C@@H]2N)nc1Nc1cc(C(=O)N2CCCC2)ccc1F [Example 289, 5-((1R,2S)-2-aminocyclohexylamino)-3-(2-fluoro-5-(pyrrolidine-1-carbonyl)phenylamino)pyrazine-2-carboxamide] | 10 to 100 nM
15 | COc1ccc(C(=O)N(C)C)cc1Nc1nc(N[C@@H]2CCCC[C@@H]2N)cnc1C(N)=O [Example 290, 5-((1R,2S)-2-aminocyclohexylamino)-3-(5-(dimethylcarbamoyl)-2-methoxyphenylamino)pyrazine-2-carboxamide] | 100 to 1000 nM
16 | COc1cc(Nc2nc(N[C@@H]3CCCC[C@@H]3N)cnc2C(N)=O)ccn1 [Example 291, 5-((1R,2S)-2-aminocyclohexylamino)-3-(2-methoxypyridin-4-ylamino)pyrazine-2-carboxamide] | 1 to 10 nM
17 | CC(C)C[C@@H](Nc1cnc(C(N)=O)c(Nc2cccc(C(=O)N(C)C)c2)n1)C(N)=O [Example 292, (R)-5-(1-amino-4-methyl-1-oxopentan-2-ylamino)-3-(3-(dimethylcarbamoyl)phenylamino)pyrazine-2-carboxamide] | 100 to 1000 nM
18 | CC(C)C[C@@H](Nc1cnc(C(N)=O)c(Nc2ccc(C(=O)N3CCC3)cc2)n1)C(N)=O [Example 293, (R)-5-(1-amino-4-methyl-1-oxopentan-2-ylamino)-3-(4-(azetidine-1-carbonyl)phenylamino)pyrazine-2-carboxamide] | 1 to 10 nM
19 | CC(C)C[C@@H](Nc1cnc(C(N)=O)c(Nc2ccc(C(=O)O)nc2)n1)C(N)=O [Example 294, (R)-5-(6-(1-amino-4-methyl-1-oxopentan-2-ylamino)-3-carbamoylpyrazin-2-ylamino)picolinic acid] | 100 to 1000 nM
20 | NC(=O)c1ncc(N[C@@H]2CCCC[C@@H]2N)nc1Nc1ccc(C(=O)N2CCC2)cc1 [Example 295, 5-((1R,2S)-2-aminocyclohexylamino)-3-(4-(azetidine-1-carbonyl)phenylamino)pyrazine-2-carboxamide] | 1 to 10 nM
21 | COc1ccc(Nc2nc(N[C@@H]3CCCC[C@@H]3N)cnc2C(N)=O)cn1 [Example 296, 5-((1R,2S)-2-aminocyclohexylamino)-3-(6-methoxypyridin-3-ylamino)pyrazine-2-carboxamide] | 1 to 10 nM
22 | NC(=O)c1ncc(N[C@@H]2CCCC[C@@H]2N)nc1Nc1ccc(C(=O)N2CC(F)(F)C2)nc1 [Example 297, 5-((1R,2S)-2-aminocyclohexylamino)-3-(6-(3,3-difluoroazetidine-1-carbonyl)pyridin-3-ylamino)pyrazine-2-carboxamide] | 1 to 10 nM
23 | CN(CC(F)(F)F)C(=O)c1ccc(Nc2nc(N[C@@H]3CCCC[C@@H]3N)cnc2C(N)=O)cc1 [Example 298, 5-((1R,2S)-2-aminocyclohexylamino)-3-(4-(methyl(2,2,2-trifluoroethyl)carbamoyl)phenylamino)pyrazine-2-carboxamide] | 10 to 100 nM
24 | CC[C@@H](Nc1cnc(C(N)=O)c(Nc2ccc(C(=O)N(C)C)cc2)n1)C(N)=O [Example 299, (R)-5-(1-amino-1-oxobutan-2-ylamino)-3-(4-(dimethylcarbamoyl)phenylamino)pyrazine-2-carboxamide] | 100 to 1000 nM

Second part, the molecule after the results:

Row | IC50 | Compound
25 | 10 to 100 nM | CC[C@@H](Nc1cnc(C(N)=O)c(Nc2ccc(C(=O)N3CCC3)nc2)n1)C(N)=O [Example 300, (R)-5-(1-amino-1-oxobutan-2-ylamino)-3-(6-(azetidine-1-carbonyl)pyridin-3-ylamino)pyrazine-2-carboxamide]
26 | 10 to 100 nM | CC[C@@H](Nc1cnc(C(N)=O)c(Nc2ccc(C(=O)N3CC(F)(F)C3)nc2)n1)C(N)=O [Example 301, (R)-5-(1-amino-1-oxobutan-2-ylamino)-3-(6-(3,3-difluoroazetidine-1-carbonyl)pyridin-3-ylamino)pyrazine-2-carboxamide]
27 | 10 to 100 nM | CC[C@@H](Nc1cnc(C(N)=O)c(Nc2ccnc(OC)c2)n1)C(N)=O [Example 302, (R)-5-(1-amino-1-oxobutan-2-ylamino)-3-(2-methoxypyridin-4-ylamino)pyrazine-2-carboxamide]
28 | 10 to 100 nM | NC(=O)c1ncc(N[C@@H]2CCCC[C@@H]2N)nc1Nc1cncnc1 [Example 303, 5-((1R,2S)-2-aminocyclohexylamino)-3-(pyrimidin-5-ylamino)pyrazine-2-carboxamide]
29 | 10 to 100 nM | NC(=O)c1ncc(N[C@@H]2CCCC[C@@H]2N)nc1Nc1ccc(F)nc1 [Example 304, 5-((1R,2S)-2-aminocyclohexylamino)-3-(6-fluoropyridin-3-ylamino)pyrazine-2-carboxamide]
30 | 10 to 100 nM | COc1ncc(Nc2nc(N[C@@H]3CCCC[C@@H]3N)cnc2C(N)=O)cn1 [Example 305, 5-((1R,2S)-2-aminocyclohexylamino)-3-(2-methoxypyrimidin-5-ylamino)pyrazine-2-carboxamide]
31 | 1 to 10 nM | COc1ncc(Nc2nc(N[C@@H]3CCCC[C@@H]3N)cnc2C(N)=O)cc1C [Example 306, 5-((1R,2S)-2-aminocyclohexylamino)-3-(6-methoxy-5-methylpyridin-3-ylamino)pyrazine-2-carboxamide]
32 | 10 to 100 nM | NC(=O)c1ncc(N[C@@H]2CCCC[C@@H]2N)nc1Nc1cccc(C(=O)N2CCC2)c1 [Example 307, 5-((1R,2S)-2-aminocyclohexylamino)-3-(3-(azetidine-1-carbonyl)phenylamino)pyrazine-2-carboxamide]
33 | 1 to 10 nM | CCOc1ccc(Nc2nc(N[C@@H]3CCCC[C@@H]3N)cnc2C(N)=O)cn1 [Example 308, 5-((1R,2S)-2-aminocyclohexylamino)-3-(6-ethoxypyridin-3-ylamino)pyrazine-2-carboxamide]
34 | 1 to 10 nM | COc1cncc(Nc2nc(N[C@@H]3CCCC[C@@H]3N)cnc2C(N)=O)c1 [Example 309, 5-((1R,2S)-2-aminocyclohexylamino)-3-(5-methoxypyridin-3-ylamino)pyrazine-2-carboxamide]
35 | 10 to 100 nM | CC[C@@H](Nc1cnc(C(N)=O)c(Nc2ccc(N(C)C)nc2)n1)C(N)=O [Example 310, (R)-5-(1-amino-1-oxobutan-2-ylamino)-3-(6-(dimethylamino)pyridin-3-ylamino)pyrazine-2-carboxamide]
